# According to patent publication US20230047825A1, “ANTIMICROBIAL PEPTIDES” (priority 2019, published 2023):
# Like-named read-outs stand apart in the source and are kept apart here. Where a SMILES comes first, the peptide text is derived from it.
# Columns and labels:
# [1] = test system: Klebsiella pneumoniae NCTC 13368; assay type: cell-based
# Klebsiella pneumoniae M6 = assay type: cell-based
# [2] = test system: Acinetobacter baumannii AYE; assay type: cell-based; conditions: AYE
# [3] = test system: Acinetobacter baumannii ATCC 17978; assay type: cell-based; conditions: in µg/mL; for MIC, Stability in serum (MH): Ab17978
# [4] = test system: Pseudomonas aeruginosa PA01; assay: Antibacterial activity assay (broth microdilution MIC); assay type: cell-based
# [5] = test system: Pseudomonas aeruginosa NCTC 13437; assay: as above; assay type: cell-based; conditions: PA13437, in µg/mL
# [6] = test system: Escherichia coli NCTC 12923; assay type: cell-based; conditions: EC12923
# [7] = test system: MS Staphylococcus aureus ATCC 9144; assay type: cell-based
# [8] = test system: EMR Staphylococcus aureus-15 (EMRSA-15); assay type: cell-based; conditions: EMRSA15
# [9] = test system: EMR Staphylococcus aureus-16 (EMRSA-16); assay type: cell-based; conditions: EMRSA16
# [10] = test system: VS Enterococcus faecalis NCTC 775; assay: Antibacterial activity assay (broth microdilution MIC); assay type: cell-based
# [11] = test system: VR Enterococcus faecium NCTC 12204; assay: as above; assay type: cell-based; conditions: VRE12204, in µg/mL
# HEK293 = assay: Cytotoxicity assay (XTT); assay type: cell-based, human
# Protocol: (§1) Cytotoxicity assay. HeLa and HEK293 cell lines were purchased from ECACC and cultured in Eagle's Minimum Essential Media (EMEM) containing glutamine, supplemented with 10% FBS and 1× non-essential amino acids (NEAA) at 37° C., 10% CO2. Cytotoxicity was measured by incubating starter cultures of cells for 24 hours in a 96 well plate, gently removing the supernatant and replacing it with dilutions of peptides and controls, incubating for a further 24 hours and then staining of the cells with the second generation tetrazolium dye, XTT. […]
# HeLa = assay: Cytotoxicity assay (XTT); assay type: cell-based, human; parameters: Toxicity HeLa: unit not given beside the values
# Protocol: as §1
# human red blood cells = assay: Haemolysis assay; conditions: red cells of human, 1 h
# Protocol: Haemolysis assay. Haemolysis was tested by incubating titrations of AMPs in PBS with freshly collected human red blood cells for 1 hour at 37 C. Control wells were treated with 0.1% Triton-X-100 to ensure complete lysis, or PBS-only to represent no lysis. Samples were spun down to remove non-lysed cells and the OD^550 of the supernatant was measured using a Clariostar plate reader. The percentage of haemolysis was calculated as % haemolysis=(AP−AB)/(AC−AB)×100, where AP is the absorbance value for a known peptide concentration, AC is the absorbance of the 0.1% Triton-X-100 control, AB is the absorbance of the PBS control. Data presented are averages and standard error from three biological replicate experiments.
# Methods: The natural AMP (termed AMP1) was modified to produce synthetic variants, AMPs 1a, 2a, 2b, 3a and 3b. Minimum inhibitory concentrations (MICs) were determined using the microbroth dilution assay with Mueller Hinton broth (MHB) or RPMI (with 5% FBS) and stability in serum was tested by conducting MICs in MHB containing 10% FBS. Synergy experiments were performed following a checkerboard protocol. Cytotoxicity was tested against HEK293 and HeLa immortalised human cell-lines using the XTT viability stain and by quantifying haemolysis of human red blood cells. Patch clamp analysis was performed using the Port-a-Patch® automated patch-clamp system on DPhPE/DPhPG (model for a Gram-negative plasma membrane) or DPhPG (Gram-positive) model membranes challenged with peptide. The murine lung infection model was performed using the agar bead model with Staphylococcus aureus strain NCTC 13616 (EMRSA-15).
# [12] = medium and unit not given, in µg/mL
# [13] = untitled table, medium/unit not given, values match RPMI of Table 2, in µg/mL
# [14] = untitled table, medium/unit inferred, values match RPMI of Table 2
# [15] = untitled table, medium/unit not given, values match RPMI of Table 2
structure (smiles),measurement,setting,value
"CC(C)C[C@H](NC(=O)[C@H](Cc1ccc(O)cc1)NC(=O)[C@H](Cc1c[nH]cn1)NC(=O)[C@@H](NC(=O)[C@H](CC(C)C)NC(=O)[C@H](C)NC(=O)[C@H](C)NC(=O)[C@H](CCCCN)NC(=O)CNC(=O)[C@@H](NC(=O)[C@H](Cc1c[nH]cn1)NC(=O)[C@H](CCCCN)NC(=O)CNC(=O)[C@@H](NC(=O)[C@H](Cc1c[nH]cn1)NC(=O)[C@H](C)NC(=O)[C@H](C)NC(=O)[C@H](CCCCN)NC(=O)[C@H](CCCCN)NC(=O)[C@H](Cc1ccccc1)NC(=O)[C@H](Cc1ccccc1)NC(=O)[C@H](CO)NC(=O)CNC(=O)[C@H](Cc1c[nH]c2ccccc12)NC(=O)CN)C(C)C)C(C)C)[C@@H](C)O)C(N)=O [Pleurocidin, reference compound] (H-GWGSFFKKAAHVGKHVGKAALTHYL-NH2; N-terminus assumed)","MIC, Stability in serum (MH)","[1]; KP13368, No serum, in µg/mL",4
same,"MIC, Stability in serum (MH)","[1]; KP13368, Serum (10% fetal bovine serum), in µg/mL",8
same,MIC on initial panels,"[1]; KP13368, medium and unit not given, in µg/mL",4-8
same,MIC,"[1]; KP13368, untitled table, medium/unit not given, values match RPMI of Table 2, in µg/mL",32
same,MIC,"[1]; Klebsiella pneumoniae KP13368, (MH), in µg/mL",4-8
same,MIC,"[1]; Klebsiella pneumoniae KP13368, (RPMI), in µg/mL",32
same,"MIC, Peptide concentration",[1]; NCTC 13368,3 µg/mL
same,MIC,"Klebsiella pneumoniae M6; (MH), in µg/mL",4
same,MIC,"Klebsiella pneumoniae M6; (RPMI), in µg/mL",32
same,"MIC, Stability in serum (MH)",Klebsiella pneumoniae M6; No serum,4 µg/mL
same,"MIC, Stability in serum (MH)",Klebsiella pneumoniae M6; Serum (10% fetal bovine serum),8 µg/mL
same,MIC on initial panels,Klebsiella pneumoniae M6; [12],4
same,MIC,Klebsiella pneumoniae M6; [13],32
same,MIC,"[2]; (MH), in µg/mL",1-2
same,MIC,"[2]; (RPMI), in µg/mL",4-8
same,"MIC, Stability in serum (MH)",[2]; No serum,2 µg/mL
same,"MIC, Stability in serum (MH)",[2]; Serum (10% fetal bovine serum),2 µg/mL
same,MIC on initial panels,[2]; [12],1-2
same,MIC,[2]; [13],4-8
same,MIC,"[3]; AB17978, (MH)",1-2
same,MIC,"[3]; AB17978, (RPMI)",8
same,MIC on initial panels,"[3]; AB17978, medium and unit not given",1-2
same,MIC,"[3]; AB17978, untitled table, medium/unit not given, values match RPMI of Table 2",8
same,"MIC, Stability in serum (MH)",[3]; No serum,2
same,"MIC, Stability in serum (MH)",[3]; Serum (10% fetal bovine serum),2
same,MIC,[4]; (MH),64 µg/mL
same,MIC,[4]; (RPMI),> 32 µg/mL
same,"MIC, Stability in serum (MH)","[4]; No serum, in µg/mL",16
same,"MIC, Stability in serum (MH)","[4]; Serum (10% fetal bovine serum), in µg/mL",32
same,MIC on initial panels,[4]; [12],64
same,MIC,[4]; [14],> 32 µg/mL
same,MIC,[5]; (MH),16-32
same,MIC,[5]; (RPMI),>32
same,"MIC, Stability in serum (MH)",[5]; No serum,16
same,"MIC, Stability in serum (MH)",[5]; Serum (10% fetal bovine serum),32
same,MIC on initial panels,[5]; medium and unit not given,16-32
same,MIC,[5]; [15],>32
same,MIC,"[6]; (MH), in µg/mL",1-2
same,MIC,"[6]; (RPMI), in µg/mL",16
same,"MIC, Stability in serum (MH)",[6]; No serum,2 µg/mL
same,"MIC, Stability in serum (MH)",[6]; Serum (10% fetal bovine serum),1 µg/mL
same,MIC on initial panels,[6]; [12],1-2
same,MIC,[6]; [13],16
same,"MIC, Peptide concentration",[7]; ATCC 9144,2 µg/mL
same,MIC on initial panels,"[7]; MSSA9144, medium and unit inferred",4 µg/mL
same,MIC,"[7]; MSSA9144, untitled table, medium/unit not given, values match RPMI of Table 2, in µg/mL",2
same,MIC on initial panels,[8]; medium and unit inferred,16 µg/mL
same,MIC,[8]; [14],4 µg/mL
same,MIC on initial panels,[9]; [12],16
same,MIC,[9]; [14],4 µg/mL
same,"MIC, Peptide concentration",[10]; Mueller-Hinton broth,64 (NG) μg/ml
same,MIC on initial panels,"[10]; VSE775, medium and unit not given, in µg/mL",64
same,MIC on initial panels,[11]; medium and unit not given,16-32
same,MIC,[11]; [15],32
same,Toxicity HEK293,HEK293; unit not given,87.5 ± 11.1
same,"Toxicity HEK293 (EC50), Peptide concentration",HEK293; value printed in parentheses,(87.5 ± 11.1) μg/ml
same,Toxicity HeLa,HeLa; unit not given,58.2 ± 3.9
same,"Toxicity HeLa (EC50), Peptide concentration",HeLa; value printed in parentheses,(58.2 ± 3.9) μg/ml
same,"Toxicity HC50, Peptide concentration",human red blood cells,~400 µg/mL
